This test relates to enterocytes. Kind of test: Phosphorylated p38 and ERK in enterocytes exposed to LPS and CpG (Western blot). It is filed as cell-based. Here is the method:
FIG. 6A-C. LPS signaling is attenuated by the TLR9 ligand CpG-DNA in enterocytes. (A) Comparison of phosphorylated p38 versus total p38 in a negative control, in the presence of 50 μg/ml LPS, in the presence of 50 μg/ml LPS and 10 μM CpG, and in the presence of 10 μM CpG. (B) Comparison of phosphorylated ERK versus total ERK in a negative control, in the presence of LPS, in the presence of LPS and CpG, and in the presence of CpG. (C) Bar graph showing the results of A.
A first series of experiments was designed to study the consequences of the TLR4 activator LPS and a CpG TLR9 agonist on the mediators of activated TLR4, p38 and ERK. Throughout this example section, the CpG used was CpG ODN, 5′-[…]-3′ (SEQ ID NO:6) P38 and ERK are both phosphorylated in their activated form. As shown in FIG. 6A-C, the relative levels of phosphorylated p38 and ERK increased when enterocytes were exposed to LPS.

1 substance from patent US8518903B2, “Use of toll-like receptor-9 agonists” (University of Pittsburgh—of the Commonwealth System of …, priority 2007, dated 2013) can be followed below.

Regarding 5′-TCCATGACGTTCCTGACGTT-3′ [CpG-DNA], the “relative level of phosphorylated p38 (increase caused by LPS)” value (50 μg/ml LPS + 10 μM CpG vs LPS alone) is “significantly less”. Further, the “relative level of phosphorylated ERK (increase caused by LPS)” value (LPS + CpG vs LPS alone) is “significantly less”.
